Laboratory results: US20110297235A1, “USE OF TRIARYLAMINE DERIVATIVES AS HOLE-CONDUCTING MATERIALS IN ORGANIC SOLAR CELLS AND ORGANIC SOLAR CELLS CONTAINING SAID TRIARYLAMINE DERIVATIVES” (BASF SE, priority 2009, published 2011)

Experiments:
[1] = in vivo; cited from earlier work
[2] = Glass transition temperature Tg and morphology M by means of DSC; type: physicochemical
[3] = Decomposition temperature Td by means of TGA; type: physicochemical
physchem = conditions: organic solvent or mixture

Row | Structure (SMILES) | LD50 [1] | glass transition temperature Tg [2] | decomposition temperature Td [3] | solubility (physchem; solubility L in chlorobenzene) | solubility (physchem; solubility in Ethyl acetate) | solubility (physchem; solubility in Tetrahydrofuran) | solubility (physchem; solubility in Toluene)
1 | Clc1ccccc1 [chlorobenzene] | 2900 mg/kg | – | – | – | – | – | –
2 | COc1ccc(N(c2ccc(OC)cc2)c2ccc(-c3ccc(N(c4ccc(OC)cc4)c4ccc(-c5ccc(N(c6ccc(OC)cc6)c6ccc(-c7ccc(N(c8ccc(OC)cc8)c8ccc(OC)cc8)cc7)cc6)s5)s4)cc3)cc2)cc1 [ID575] | – | 110 °C | 440 °C | > 400 mg/mL | – | – | –
3 | COc1ccc(N(c2ccc(N(c3ccccc3)c3ccc(N(c4ccccc4)c4ccc(N(c5ccc(OC)cc5)c5ccc6c(c5)C(C)(C)c5ccccc5-6)cc4)cc3)cc2)c2ccc3c(c2)C(C)(C)c2ccccc2-3)cc1 [ID366] | – | 127 °C | 460 °C | > 1100 mg/mL | > 560 mg/mL | > 440 mg/mL | > 380 mg/mL
